We go through two compounds from US10336693B2 (priority 2015, dated 2019).

Assay [1] concerns virus showing oseltamivir resistance due to the H275Y mutation. It is filed as binding, influenza virus.
Assay [2] concerns neuraminidase site of oseltamivir-resistant virus (mutant type). Also on record: species or system influenza virus.
Assay [3] relates to neuraminidase (NA) of Influenza A/Korea/2785/2009 (H275Y mutation). The format is biochemical, Influenza A virus.

As for `CCC(CC)O[C@@H]1C=C(C(=O)OCCCCCCS)C[C@H](N)[C@H]1NC(C)=O` [oseltamivir hexylthiol], the “affinity for H275Y oseltamivir-resistant virus relative to oseltamivir sensitive virus” value in assay [1] is given as “about 1000 fold”. The “affinity for mutant type relative to wild type” value in assay [2] is “about 250 fold”. In addition, the “inhibition of NA activity of mutant-type virus compared with wild-type virus” value in assay [3] is “inhibited the NA activity of the mutant-type virus (H275Y mutation) more significantly than the NA activity of the wild-type virus”.

For `CCC(CC)O[C@@H]1C=C(C(=O)OCCCCCCN)C[C@H](N)[C@H]1NC(C)=O` [oseltamivir hexylamine], in assay [1], the “affinity for H275Y oseltamivir-resistant virus relative to oseltamivir sensitive virus” value is recorded as “about 1000 fold”. The “inhibition of NA activity of mutant-type virus compared with wild-type virus” value in assay [3] is reported as “inhibited the NA activity of the mutant-type virus (H275Y mutation) more significantly than the NA activity of the wild-type virus”.
